From PubChem BioAssay (NCI)
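Growth conditions: 96-well plates. Treatment: test compound, 48 hours, 5 concentrations. Analysis: linear interpolation between bracketing concentrations; unreached endpoints set to highest concentration. GI50 = concentration required for 50% inhibition of growth. TGI marks complete inhibition of growth.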

Columns and labels:
Test in all cases: inhibition of tumour cell growth, NCI panel, 48 h
[1] = test system: A498 renal
[2] = test system: CAKI-1 renal
[3] = test system: HCT-116 colon
[4] = test system: HCT-15 colon
[5] = test system: NCI-H23 lung
[6] = test system: NCI-H522 lung
[7] = test system: OVCAR-8 ovarian
[8] = test system: SF-295 CNS
[9] = test system: SN12C renal
[10] = test system: UO-31 renal

SMILES: COc1ccc(CNc2nc(NCc3ccc(OC)cc3)nc(N3CCOCC3)n2)cc1
- TGI [1]: 93.8 µM
- TGI [2]: 6.9 µM
- TGI [3]: > 100 µM
- TGI [4]: 6.21 µM
- TGI [5]: 28.7 µM
- TGI [6]: > 100 µM
- TGI [7]: > 100 µM
- TGI [8]: 8.98 µM
- TGI [9]: > 100 µM
- TGI [10]: > 100 µM

SMILES: CC1(C)[C@@H]2C[C@H]1c1cnc(-c3ccccn3)cc1C2[C@@H]1c2cc(-c3ccccn3)ncc2[C@@H]2C[C@H]1C2(C)C (some centres not stated)
- TGI [1]: > 100 µM
- TGI [2]: > 100 µM
- TGI [3]: > 100 µM
- TGI [4]: > 100 µM
- TGI [5]: > 100 µM
- TGI [6]: > 100 µM
- TGI [7]: > 100 µM
- TGI [8]: > 100 µM
- TGI [9]: > 100 µM
- TGI [10]: 85.9 µM

SMILES: N#CC1=CNc2sccc2S1(=O)=O
- TGI [1]: > 100 µM
- TGI [2]: > 100 µM
- TGI [3]: > 100 µM
- TGI [4]: > 100 µM
- TGI [5]: > 100 µM
- TGI [6]: > 100 µM
- TGI [7]: > 100 µM
- TGI [8]: > 100 µM
- TGI [9]: > 100 µM
- TGI [10]: > 100 µM

SMILES: CC1=CC[C@@H]2CC[C@]3(C)[C@H](CC[C@@H]4[C@@]5(C)CCCNC(C)(C)[C@@H]5CC[C@]43C)[C@H]2[C@@H]1C
- GI50 [1]: 1.87 µM
- TGI [1]: 3.6 µM
- GI50 [2]: 1.69 µM
- TGI [2]: 3.05 µM
- GI50 [5]: 1.78 µM
- TGI [5]: 3.37 µM
- GI50 [8]: 1.87 µM
- TGI [8]: 3.42 µM
- GI50 [9]: 1.83 µM
- TGI [9]: 3.44 µM
- GI50 [10]: 1.47 µM
- TGI [10]: 2.82 µM

SMILES: CCOC(=O)c1cn(-c2ccc(Cl)cc2)c(=O)n2c1nc1ccccc12
- TGI [1]: > 100 µM
- TGI [2]: > 100 µM
- TGI [3]: > 100 µM
- TGI [4]: > 100 µM
- TGI [5]: > 100 µM
- TGI [7]: > 100 µM
- TGI [8]: > 100 µM
- TGI [9]: > 100 µM
- TGI [10]: > 100 µM

SMILES: COC(OC)C(O)C1OC=CC1n1cnc2c(N)ncnc21 (configuration not stated)
- TGI [1]: > 100 µM
- TGI [2]: > 100 µM
- TGI [3]: > 100 µM
- TGI [4]: > 100 µM
- TGI [5]: > 100 µM
- TGI [8]: > 100 µM
- TGI [9]: > 100 µM
- TGI [10]: > 100 µM

SMILES: CCOC(=O)c1sc2c(c1OC(=O)c1ccccc1)c(=O)n(-c1ccccc1)c(=S)n2-c1ccccc1
- TGI [1]: 31 µM
- TGI [2]: > 100 µM
- TGI [3]: 74.8 µM
- TGI [4]: > 100 µM
- TGI [5]: 48.9 µM
- TGI [6]: 56.3 µM
- TGI [7]: > 100 µM
- TGI [8]: > 100 µM
- TGI [9]: > 100 µM

SMILES: Nc1nc2c(ncn2C2C=CC(CO)O2)c(=O)[nH]1 (configuration not stated)
- TGI [1]: > 100 µM
- TGI [2]: > 100 µM
- TGI [3]: > 100 µM
- TGI [4]: > 100 µM
- TGI [5]: > 100 µM
- TGI [7]: > 100 µM
- TGI [8]: > 100 µM
- TGI [9]: > 100 µM
- TGI [10]: > 100 µM

SMILES: CCOC(=O)C(O)(NC(C)=O)C(F)(F)F (configuration not stated)
- TGI [2]: > 100 µM
- TGI [3]: > 100 µM
- TGI [4]: > 100 µM
- TGI [5]: > 100 µM
- TGI [6]: > 100 µM
- TGI [7]: > 100 µM
- TGI [8]: > 100 µM
- TGI [9]: > 100 µM
- TGI [10]: > 100 µM

SMILES: O=C(O)c1ccc(Nc2nc3cc(C(F)(F)F)ccc3nc2C(=O)O)cc1
- TGI [1]: > 100 µM
- TGI [2]: > 100 µM
- TGI [3]: > 100 µM
- TGI [4]: > 100 µM
- TGI [5]: > 100 µM
- TGI [6]: > 100 µM
- TGI [7]: > 100 µM
- TGI [8]: > 100 µM
- TGI [9]: > 100 µM
- TGI [10]: > 100 µM

SMILES: O=[As](O)(O)c1cc(N=Nc2ccc(-c3ccc(N=Nc4cc([As](=O)(O)O)c(O)cc4O)cc3)cc2)c(O)cc1O
- TGI [1]: > 73.4 µM
- TGI [2]: > 100 µM
- TGI [3]: > 100 µM
- TGI [4]: > 100 µM
- TGI [5]: > 100 µM
- TGI [6]: > 100 µM
- TGI [7]: > 100 µM
- TGI [8]: > 100 µM
- TGI [9]: > 100 µM
- TGI [10]: > 100 µM

SMILES: COc1cc(C2C3=C(COC3=O)OC(C)(C)Oc3cc4c(cc32)OCO4)cc(OC)c1OC (configuration not stated)
- TGI [1]: 1.49 µM
- TGI [2]: > 100 µM
- TGI [3]: 6.65 µM
- TGI [5]: > 100 µM
- TGI [6]: 30.1 µM
- TGI [7]: > 100 µM
- TGI [8]: 0.532 µM
- TGI [9]: > 100 µM
- TGI [10]: 5.86 µM

SMILES: N#CCCN(CCCN(C(=O)Nc1ccccc1)c1ccccc1)C(=O)Nc1ccccc1
- TGI [2]: 28.6 µM
- TGI [3]: > 100 µM
- TGI [4]: > 100 µM
- TGI [5]: > 100 µM
- TGI [6]: > 100 µM
- TGI [7]: > 100 µM
- TGI [8]: > 100 µM
- TGI [9]: > 100 µM
- TGI [10]: > 100 µM

SMILES: Cc1ccc(O)c(C2=NNC(c3cccc(Br)c3)C2)c1 (configuration not stated)
- TGI [2]: > 100 µM
- TGI [3]: > 100 µM
- TGI [4]: 35.1 µM
- TGI [5]: > 100 µM
- TGI [6]: > 100 µM
- TGI [7]: > 100 µM
- TGI [8]: > 100 µM
- TGI [9]: > 100 µM
- TGI [10]: > 100 µM

SMILES: CCOC(=O)C1=C(C)NC(=S)NC1c1cccc(O)c1 (configuration not stated)
- TGI [1]: 87.6 µM
- TGI [2]: > 100 µM
- TGI [3]: > 100 µM
- TGI [4]: > 100 µM
- TGI [5]: > 100 µM
- TGI [6]: 93.9 µM
- TGI [7]: > 100 µM
- TGI [8]: 93.6 µM
- TGI [9]: > 95.3 µM
- TGI [10]: > 100 µM

SMILES: CC[N+](CC)=c1ccc2nc3c(cc(N)c4ccccc43)oc-2c1
- GI50 [5]: 0.125 µM
- TGI [5]: 0.358 µM
- GI50 [7]: 1.07 µM
- TGI [7]: 3.43 µM
- GI50 [8]: 0.111 µM
- TGI [8]: 0.288 µM

SMILES: CC[N+](C)(CC)CCN1C(=O)c2ccccc2S1(=O)=O
- TGI [1]: > 100 µM
- TGI [2]: > 100 µM
- TGI [3]: > 100 µM
- TGI [4]: > 100 µM
- TGI [5]: > 100 µM
- TGI [6]: > 100 µM
- TGI [7]: > 100 µM
- TGI [8]: > 100 µM
- TGI [9]: > 100 µM
- TGI [10]: > 100 µM

SMILES: CC#CC(O)(C(=O)OC1CCCN(C)C1)C1=CC=CCC1 (configuration not stated)
- TGI [1]: > 100 µM
- TGI [2]: > 100 µM
- TGI [3]: > 100 µM
- TGI [4]: > 100 µM
- TGI [5]: > 100 µM
- TGI [6]: > 100 µM
- TGI [7]: > 100 µM
- TGI [8]: > 100 µM
- TGI [9]: > 100 µM
- TGI [10]: > 100 µM

SMILES: CN(C(=O)c1ccc(Cl)s1)C(=S)N(C)C(=O)c1ccc(Cl)s1
- TGI [1]: > 10 µM
- TGI [2]: > 10 µM
- TGI [3]: > 10 µM
- TGI [4]: > 10 µM
- TGI [5]: > 10 µM
- TGI [6]: > 10 µM
- TGI [7]: > 10 µM
- TGI [8]: > 10 µM
- TGI [9]: > 10 µM
- TGI [10]: > 10 µM

SMILES: CN1CC(c2ccccc2)N(CCCCN2CC(c3ccccc3)N(C)CC2c2ccccc2)CC1c1ccccc1 (configuration not stated)
- TGI [1]: > 100 µM
- TGI [2]: > 100 µM
- TGI [3]: 24.2 µM
- TGI [4]: > 100 µM
- TGI [7]: > 100 µM
- TGI [8]: > 100 µM
- TGI [9]: > 100 µM
- TGI [10]: > 100 µM

SMILES: COc1cccc(-c2nc3sccn3c2-c2ccnc(NCCNC(=O)Nc3cccc(C(F)(F)F)c3)n2)c1
- GI50 [1]: 2.44 µM
- TGI [1]: 17.5 µM
- GI50 [2]: 3.5 µM
- TGI [2]: 10.3 µM
- GI50 [3]: 3.45 µM
- TGI [3]: 11.6 µM
- GI50 [4]: 3.05 µM
- TGI [4]: 16.4 µM
- GI50 [5]: 3.42 µM
- TGI [5]: 76.9 µM
- GI50 [6]: 2.67 µM
- TGI [6]: 8.51 µM
- GI50 [7]: 3.28 µM
- TGI [7]: 9.79 µM
- GI50 [8]: 2.8 µM
- TGI [8]: 14.9 µM
- GI50 [9]: 4.03 µM
- TGI [9]: 26.5 µM
- GI50 [10]: 2.88 µM
- TGI [10]: 24.8 µM
